# Where “and” joins values, the source holds several entries; their conditions need not be identical. Equal entries are not always repeated. Where two headings read alike, the source gives them in different places.
# What was measured:
# [1] = Conductance measurements in planar lipid membranes (BLM); assay type: biochemical; conditions: 5 mg/L, 1M KCl, 10 mM Tris, pH 7.4, 45 mV
# Method: A Teflon chamber was divided into two compartments connected by a circular aperture of about 0.5 mm in diameter. Black lipid bilayer membranes were formed by painting a solution of 3% (w/v) asolectin (type IIS phosphatidylcholine; Sigma-Aldrich) in n-decane/butanol (9:1, v/v) across the hole. Both compartments contained 2 ml of 10 mM Tris, 1M KCl, pH 7.4. The temperature was kept at 25°C. Tested LPPO was added to the cis side of the membrane at a concentration of 5 mg/L. The membrane current was measured with Ag/AgCl electrodes (Theta) with salt bridges (applied voltage 45 mV, cis positive), amplified by LCA-200-100G or LCA-4k-1G amplifier (Femto) and digitized by KPCI-3108 card (Keithly). The signal was processed by QuB software. The histograms of single pore conductance was calculated from at least 500 events using a 50 pS bin size and fitted with Gaussian functions using Fityk software.
# Streptococcus agalactiae = test: MIC, standard microdilution method; conditions: 24 h
# [2] = tested on: Salmonella typhimurium TA98 and TA100; test: Ames test for genotoxicity (Salmonella/microsome reversion assay, without S9); assay type: cell-based; conditions: at relevant concentrations, without metabolic activation
# Method: The Salmonella/microsome reversion assay was conducted using the plate incorporation procedure described by Marona and Ames. The Ames test was performed utilizing two different bacterial strains of Salmonella typhimurium: strain TA98 for frame-shift mutations and strain TA100 for base-pair substitution. All strains were maintained and stored according to the standard procedures. All samples were tested without metabolic activation (S9) to detect direct mutagenic compounds. The test was performed with plate incorporation method in duplicate at the increasing concentrations. The plates were incubated at 37°C for 72 h in the dark. The number of his+ revertants was estimated with the counter. Results were expressed as mutation ratios (Φ) calculated as the number of colonies on test plates/number of colonies on solvent control plates. A compound is considered mutagenic when Φ is more than 2 and a dose–response effect is evident.
# [3] = tested on: Clostridium perfringens CCM 4435; test: microbe, parasite or virus in culture; assay type: cell-based; conditions: CCM4435
# [4] = Critical micellar concentration (conductometry); assay type: physicochemical; conditions: 37°C
# Method: Critical micellar concentration (CMC) values were measured (using conductometry method, COND 7, XS Laboratories instrument) and calculated according to literature procedure. LogD values were calculated using software package ACD Labs.
# [5] = tested on: Peptostreptococcus anaerobius; test: MIC against anaerobic bacteria, tube dilution method; assay type: cell-based; conditions: anaerobic conditions, 35°C, 48 h (confirmed 72 h)
# [6] = tested on: Enterococcus faecalis CCM 4224; test: Induction of resistance by repeated passages, MIC after each step; assay type: cell-based
# [7] = Carboxyfluorescein leakage assay, LUV from bacterial lipids; assay type: biochemical, Bacillus subtilis; conditions: for Hill coefficient n, rapid initial phase of CF release: LPPO 0.8 mg/L, 60 μM phospholipid, 25°C
# Method: Bacterial phospholipids were extracted with hexane/2-propanol (3:2, v/v) mixture from B. subtilis 168 cell biomass (2000 ml of culture in LB medium) harvested in exponential phase by rapid filtration (Synpor no. 5 filter, Pragochema, Czech Republic). Phospholipids from human erythrocytes (0.5 ml, volunteer blood donor) were extracted with chloroform/2-propanol mixture (7:11, v/v) after hemolysis using distilled water. After evaporation of the solvent in vaccuo at 40°C, the phospholipids were dissolved in chloroform, filtered through glass fiber filters (Whatman) and concentrated under a stream of nitrogen. The lipid samples were stored at -80°C and used for liposome preparation.
# Vesicles to be used in the carboxyfluorescein (CF) leakage assay were prepared by mixing the appropriate amount of lipids (1 mg/ml) with chloroform/methanol 2:1 (v/v). The solvent was subsequently evaporated under a nitrogen gas stream obtaining a thin film on the walls of a glass tube. The hydration procedure in a buffer containing 50 mM CF, 5 mM HEPES pH 7.4 lasted for 60 min at 40°C, interrupted by thorough vortexing to form multilamellar vesicles. Large unilamellar vesicles (LUV) were prepared by repeated extrusion of the multilamellar vesicles through 100 nm polycarbonate filters (Avestin) using the LiposoFast Basic apparatus (Avestin, Canada). Vesicles were separated from nonencapsulated dye by gel filtration on Sephadex G-50 using 100 mM NaCl, 0.5 mM Na2EDTA and 5 mM HEPES, pH 7.4 as elution buffer. Fractions with the highest content of the entrapped dye were pooled and dissolved in the same buffer to the final phospholipid concentration of 60 μM.
# The release of vesicle contents after adding LPPO solutions was evaluated by the increased fluorescence intensity of CF released into the milieu which we express as the percentage of leakage. […] Maximum release of CF fluorescence (F max) was induced by lysing the vesicles with 0.1% (v/v) Triton X-100. Fluorescence intensity was monitored in time (excitation at 480 nm, emission at 515 nm) at 25°C using FluoroMax-3 (Jobin Yvon, Horriba) spectrofluorometer. The following equation was used to calculate the percent of CF leakage: % CF leakage = [(F–F 0)/(F max−F 0)] × 100, where F is the actual fluorescence intensity and F 0 is the fluorescence intensity before addition of the permeabilizing agent. Using Fityk software the time courses of liposome lysis were fitted by a function: α(1-exp(-t/τ))^n, where t is the time, α is the amplitude of the effect, τ is the time constant of the effect, and n is Hill coefficient (S3 Fig).
# Bacillus subtilis = test: MIC, standard microdilution method; conditions: Bacillus subtilis
# Solubility in water = assay type: physicochemical
# [8] = tested on: Bacteroides fragilis CCM 4712; test: MIC against anaerobic bacteria, tube dilution method; assay type: cell-based; conditions: CCM4712, anaerobic conditions, 35°C, 48 h (confirmed 72 h)
# [9] = tested on: Staphylococcus haemolyticus 16568; test: MIC, standard microdilution method; conditions: Staphylococcus haemolyticus, 16568, 24 h
# [10] = tested on: Staphylococcus aureus CCM 4223; test: MIC, standard microdilution method; conditions: CCM4223, 24 h
# [11] = tested on: Enterococcus faecium VanA 419/ana; test: MIC, standard microdilution method; conditions: VANA419/ANA, 24 h
# [12] = CCM4224, read-out: MIC after induction step, step 1
# [13] = CCM4224, read-out: MIC after induction step, step 2
# [14] = CCM4224, read-out: MIC after induction step, step 3
# [15] = CCM4224, read-out: MIC after induction step, step 4
# [16] = CCM4224, read-out: MIC after induction step, step 5
# [17] = CCM4224, read-out: MIC after induction step, step 6
# [18] = CCM4224, read-out: MIC after induction step, step 7
# [19] = CCM4224, read-out: MIC after induction step, step 8
# [20] = CCM4224, read-out: MIC after induction step, step 9
# [21] = CCM4224, read-out: MIC after induction step, step 10
# [22] = CCM4224, read-out: MIC after induction step, step 11
# [23] = CCM4224, read-out: MIC after induction step, step 12
# [24] = CCM4224, read-out: MIC after induction step, step 13
# [25] = CCM4224, read-out: MIC after induction step, step 14
Compound,most frequent single pore conductance step [1],MIC (Streptococcus agalactiae),genotoxicity (mutagenic potential) [2],MIC [3],CMC in H2O [4],MIC [5],"MIC [6, 12]","MIC [6, 13]","MIC [6, 14]","MIC [6, 15]","MIC [6, 16]","MIC [6, 17]","MIC [6, 18]","MIC [6, 19]","MIC [6, 20]","MIC [6, 21]","MIC [6, 22]","MIC [6, 23]","MIC [6, 24]","MIC [6, 25]",other results
CCCCCCCCCCCCCCCCOP(=O)(CCN1C[C@@H](O)[C@H](O)C1)OC[C@H]1O[C@@H](n2ccc(=O)[nH]c2=O)[C@H](O)[C@@H]1O (some centres unmarked) [DR5026],310 ± 128 pS,3.12 µg/mL,Neither of the two compounds was found to be genotoxic,12.5 µg/mL,4 mM and 3 g/L,1.56 µg/mL,6.2 µg/mL,6.2 µg/mL,6.2 µg/mL,6.2 µg/mL,6.2 µg/mL,12.5 µg/mL,12.5 µg/mL,12.5 µg/mL,12.5 µg/mL,12.5 µg/mL,12.5 µg/mL,12.5 µg/mL,12.5 µg/mL,12.5 µg/mL,"Hill coefficient n, rapid initial phase of CF release [7]: 0.5 ± 0.2; fit Hill coefficient n, initial phase f(x) ([7]; S3 Fig data set): 0.6; fit Hill coefficient n, latter phase g(x) ([7]; S3 Fig data set): 3.1; fit amplitude α, initial phase f(x) of liposome lysis ([7]; S3 Fig data set): 29.7; fit amplitude α, latter phase g(x) of liposome lysis ([7]; S3 Fig data set): 76.4; fit time constant τ, initial phase f(x) ([7]; S3 Fig data set): 175.5 s; fit time constant τ, latter phase g(x) ([7]; S3 Fig data set): 28.2 s; MIC (Bacillus subtilis; 24 h): 3.12 µg/mL; MIC (Bacillus subtilis; read-out: MIC against wt B. subtilis, B. subtilis 168, as stated for the resistance selection experiment): ~3 µg/mL; solubility (Solubility in water): > 10000 µg/mL; MIC [8]: 12.5 µg/mL; MIC [9]: 50 µg/mL; MIC [10]: 25 µg/mL; MIC [11]: 3.12 µg/mL"
CCCCCCCCCCCCCCCCOCCCOP(=O)(CCN1C[C@@H](O)[C@H](O)C1)OC[C@H]1O[C@@H](n2ccc(=O)[nH]c2=O)[C@H](O)[C@@H]1O (some centres unmarked) [DR5047],70 ± 37 pS,6.25 µg/mL,Neither of the two compounds was found to be genotoxic,12.5 µg/mL,3 mM and 2 g/L,1.56 µg/mL,12.5 µg/mL,12.5 µg/mL,12.5 µg/mL,12.5 µg/mL,25 µg/mL,25 µg/mL,25 µg/mL,25 µg/mL,25 µg/mL,50 µg/mL,25 µg/mL,25 µg/mL,25 µg/mL,25 µg/mL,"further conductance states observed [1]: 270 ± 79 pS and 510 ± 77 pS; Hill coefficient n, rapid initial phase of CF release [7]: 0.7 ± 0.1; MIC (Bacillus subtilis; 24 h, 35°C, brain heart infusion broth): 6.25 µg/mL; solubility (Solubility in water): > 10000 µg/mL; MIC [8]: 6.25 µg/mL; MIC [9]: > 200 µg/mL; MIC [10]: > 200 µg/mL; MIC [11]: 6.25 µg/mL"

# Source: PMC4696656, “Insights into the Mechanism of Action of Bactericidal Lipophosphonoxins” (PLoS ONE, 2015)
